Entries after “also recorded” stand apart in the source; their conditions may differ.
Assays:
[1] = clinical; settings: both sexes, human, in vivo, 550 mg
Experimental: (§1) Over-encapsulation was utilized to maintain study blind. […] Approximately 50 older healthy female and male adult subjects (1:1 ratio) were randomized into 1 of 2 cohorts:Cohort 1 or Cohort 2, N=˜25 subjects per cohort.
There was a single AM fasting dose on Day 4 for both drugs. There was a 6-day wash-out period between drug cross-over.
Subjects were discharged on Day 4 following successful completion of all assessments and at the Investigator's discretion.
Subjects were then administered a single dose of their randomized treatment on the morning of Day 14 following an overnight fast of at least 8 hours. Subjects were discharged on Day 14 following successful completion of all assessments and at the Investigator's discretion.
An evening snack was served ≥3 hours following evening study medication administration. On Day 4 (Treatment Period 1) and Day 14 (Treatment Period 2), subjects were administered their assigned study drug once in the morning following an overnight fast of at least 8 hours (with approximately 240 mL of non-carbonated water). No additional fluids were allowed during the 1 hour pre- and post-dose.
Blood samples for PK were collected for Cohorts 1 and 2 at specified times during both periods, as follows: • Days 1 & 11:0 (pre-morning dose) • Days 2 & 12: no sampling. • Days 3 & 13:0 (pre-morning dose), and 1, 2, 3, 4, 6 (pre-mid-day dose), 7, 8, 9, 10, 12 (pre-evening dose), 13, 14, 15, 16, and 17 hours post-morning dose • Days 4 & 14:0 (pre-morning dose), and 1, 2, 3, 4, 6 (post-dose),

[2] = system: rat BLM induced lung fibrosis model; settings: in vivo, 400 mg/kg
Experimental: (§3) For Groups 4, 5, 6, and 7, bleomycin and vehicle dosing were conducted as indicated in Table 28 (0.45 mg/kg, at 1696 IU/mg of Bleomycin or saline on Day 1, 2, 3, 6 and 7).

[3] = target: T1, CYP2C19 (Homo sapiens, UniProt P33261); test: In vitro stability with recombinant human CYP2C19; type: in vitro ADME; settings: recombinant human isozyme; read-out: t1/2 following incubation with CYP2C19 (converted)
T1 construct: host or cells: heterologous cell systems (not specified)
Experimental: (§2) The half-life (t½) of each test article was determined.

[4] = system: rat BLM induced lung fibrosis model; test: Rat bleomycin induced lung fibrosis model, Phase II (efficacy); settings: bleomycin rats, LYT-100 400 mg/kg QD / nintedanib 60 mg/kg BID
Experimental: as §3

[5] = system: older, healthy subjects; test: Crossover study Part 2: safety and tolerability (TEAEs), fed and fasted; type: in vivo, human
Text: as §1, with “cohort. Subjects in each cohort were randomized to treatment sequence as follows: • Sequence A: Pirfenidone to LYT-100 • Sequence B: LYT-100 to pirfenidone” for “cohort.”

[6] = target: T2, CYP2D6 (Homo sapiens, UniProt P10635); test: In vitro stability with recombinant human CYP2D6; type: in vitro ADME; settings: recombinant human isozyme; read-out: t1/2 following incubation with CYP2D6 (converted)
T2 construct: host or cells: heterologous cell systems (not specified)
Experimental: as §2

[7] = system: patients with Idiopathic Pulmonary Fibrosis (IPF); test: IPF trial Part B (open label long-term extension): efficacy, safety, TEAEs; type: in vivo, human
Text: Part B (long-term extension) will evaluate the tolerability and long-term safety of LYT-100 in patients who complete the Double-blind Treatment Period. Part B has two periods. […] Patients completing Part B Period 1 will continue maintenance treatment in Part B Period 2 until the study ends. Part B Period 2 will continue at least until all patients who enter Part B Period 1 have the opportunity to complete Part B Period 1. Tolerability and safety during both Part B Period 1 and Part B Period 2 will be monitored by regularly scheduled review of adverse events (AEs), patient reported symptoms, concomitant medications, clinical laboratory findings, physical examinations, electrocardiograms (ECGs), and vital signs. Efficacy will be assessed by evaluation of pulmonary function and monitored by spirometry at regularly scheduled clinic visits. A graphical illustration of an embodiment of the trial design is provided as FIG. 24C.
At the start of Part B, all patients received LYT-100 oral tablets. Patients were titrated onto their assigned doses.
The proportion of patients with prior exposure to nintedanib was limited to 50%.
One hundred and seventy (170) patients (greater than 90%) enrolled in the Open Label Extension (Part B) of the study.

[8] = Part A LYT-100 → Part B LYT-100 (N = 81)
[9] = Part A Pirfenidone → Part B LYT-100 (N = 39)
[10] = Part A Placebo → Part B LYT-100 (N = 50)

T1 sequence (P33261 whole entry): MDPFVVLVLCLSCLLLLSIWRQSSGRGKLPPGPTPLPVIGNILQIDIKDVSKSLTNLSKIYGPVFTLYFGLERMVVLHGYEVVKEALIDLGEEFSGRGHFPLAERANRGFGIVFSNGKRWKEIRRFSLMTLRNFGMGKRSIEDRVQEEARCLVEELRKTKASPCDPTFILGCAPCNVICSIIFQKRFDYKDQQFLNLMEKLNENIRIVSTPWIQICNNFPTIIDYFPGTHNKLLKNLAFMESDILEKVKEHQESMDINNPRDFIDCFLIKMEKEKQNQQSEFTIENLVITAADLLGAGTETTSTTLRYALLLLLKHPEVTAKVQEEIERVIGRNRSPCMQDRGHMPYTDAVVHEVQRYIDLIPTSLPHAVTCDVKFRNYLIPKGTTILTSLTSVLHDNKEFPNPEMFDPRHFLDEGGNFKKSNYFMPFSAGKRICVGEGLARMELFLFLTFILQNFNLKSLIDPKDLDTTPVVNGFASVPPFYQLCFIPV
T2 sequence (P10635 whole entry): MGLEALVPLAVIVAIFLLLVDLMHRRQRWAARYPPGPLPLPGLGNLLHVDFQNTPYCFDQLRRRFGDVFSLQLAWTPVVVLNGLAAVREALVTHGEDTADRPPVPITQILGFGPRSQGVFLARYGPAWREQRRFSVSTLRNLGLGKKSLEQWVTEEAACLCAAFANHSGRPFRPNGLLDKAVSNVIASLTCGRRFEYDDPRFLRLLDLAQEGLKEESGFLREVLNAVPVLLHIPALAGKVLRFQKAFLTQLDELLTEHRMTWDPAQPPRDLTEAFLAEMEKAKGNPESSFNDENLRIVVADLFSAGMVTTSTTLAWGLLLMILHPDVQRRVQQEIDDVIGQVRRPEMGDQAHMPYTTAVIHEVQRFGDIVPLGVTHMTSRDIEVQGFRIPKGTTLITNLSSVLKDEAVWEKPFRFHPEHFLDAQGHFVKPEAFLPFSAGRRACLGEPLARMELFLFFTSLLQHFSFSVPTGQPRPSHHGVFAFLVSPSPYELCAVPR

**Q.** With [2H]C([2H])([2H])c1ccc(=O)n(-c2ccccc2)c1 [LYT-100, 5-(methyl-d3)-1-phenylpyridin-2-(1H)-one] as the molecule, how does the AUC(0-t) ([1]; AUC0-24, parent) read?
**A.** The AUC(0-t) was 34100 ng·h/mL.

**Q.** What about the Cmax ([1]; Cmax, parent) of the same molecule?
**A.** Its Cmax is 9170 ng/mL.

**Q.** What about the tolerability [2] of the same molecule?
**A.** The tolerability was “well tolerated”.

**Q.** And the half-life [3]?
**A.** The half-life was 3.67 h.

**Q.** What about the “hydroxyproline content (μg per mg of wet lung) vs bleomycin/vehicle” value ([4]; Day 8-27) of the same molecule?
**A.** The value was “reduced the hydroxyproline content; also recorded: reduced lung hydroxyproline content”.

**Q.** And the “lung fibrosis scores (histopathology) vs bleomycin/vehicle” value ([4]; Day 8-27)?
**A.** Its value is “did not affect the fibrosis scores”.

**Q.** What about the “lung sections with fibrosis Score 1” value ([4]; Day 8-27) of the same molecule?
**A.** Its value is 33%.

**Q.** What about the “lung sections with fibrosis Score 2” value ([4]; Day 8-27) of the same molecule?
**A.** The value was 36%.

**Q.** What about the “mean lung weight vs bleomycin/vehicle” value ([4]; Day 8-27) of the same molecule?
**A.** Its value is “did not affect mean lung weight”.

**Q.** And the “median lung fibrosis scores vs bleomycin/vehicle” value ([4]; Day 8-27)?
**A.** The value was “reduced median fibrosis scores”.

**Q.** What about the “total left lung hydroxyproline (μg per left lung) vs bleomycin/vehicle” value ([4]; Day 8-27) of the same molecule?
**A.** Its value is “did not affect total hydroxyproline levels”.

**Q.** And the body weight gain ([4]; oral gavage Day 8-27)?
**A.** Its body weight gain is “resumed and at a rate similar to Group 4; also recorded: did not negatively affect body weight developments”.

**Q.** And the “deaths or serious AEs” value ([5]; Part 2)?
**A.** Its value is “No deaths or serious AEs”.

**Q.** And the “TEAEs leading to study discontinuation, subjects” value ([5]; in vivo)?
**A.** The value was “one”.

**Q.** And the half-life [6]?
**A.** The half-life was 2.72 h.

**Q.** And the “response in Open Label Extension” value ([7]; IPF Part B, ongoing, LYT-100 825 mg TID (FIG. 49))?
**A.** Its value is “durable response”.

**Q.** What about the “TEAE Abdominal Pain” value [7, 8] of the same molecule?
**A.** The value was 2 (2.5) n (%).

**Q.** And the “TEAE Diarrhea” value [7, 8]?
**A.** Its value is 2 (2.5) n (%).

**Q.** What about the “TEAE Dyspepsia” value [7, 8] of the same molecule?
**A.** The value was 7 (8.6) n (%).

**Q.** What about the “TEAE Nausea” value [7, 8] of the same molecule?
**A.** Its value is 5 (6.2) n (%).

**Q.** What about the “TEAE SOC Gastrointestinal disorders” value [7, 8] of the same molecule?
**A.** The value was 17 (21.0) n (%).

**Q.** What about the “TEAE Vomiting” value [7, 8] of the same molecule?
**A.** Its value is 2 (2.5) n (%).

**Q.** What about the “TEAE Abdominal Pain” value [7, 9] of the same molecule?
**A.** Its value is 1 (2.6) n (%).

**Q.** And the “TEAE Diarrhea” value [7, 9]?
**A.** The value was 1 (2.6) n (%).

**Q.** And the “TEAE Dyspepsia” value [7, 9]?
**A.** The value was 0 n (%).

**Q.** What about the “TEAE Nausea” value [7, 9] of the same molecule?
**A.** The value was 2 (5.1) n (%).

**Q.** And the “TEAE SOC Gastrointestinal disorders” value [7, 9]?
**A.** Its value is 5 (12.8) n (%).

**Q.** And the “TEAE Vomiting” value [7, 9]?
**A.** Its value is 0 n (%).

**Q.** And the “TEAE Abdominal Pain” value [7, 10]?
**A.** The value was 2 (4.0) n (%).

**Q.** What about the “TEAE Diarrhea” value [7, 10] of the same molecule?
**A.** Its value is 2 (4.0) n (%).

**Q.** What about the “TEAE Dyspepsia” value [7, 10] of the same molecule?
**A.** Its value is 7 (14.0) n (%).

**Q.** And the “TEAE Nausea” value [7, 10]?
**A.** Its value is 7 (14.0) n (%).

**Q.** And the “TEAE SOC Gastrointestinal disorders” value [7, 10]?
**A.** The value was 18 (36.0) n (%).

**Q.** And the “TEAE Vomiting” value [7, 10]?
**A.** Its value is 3 (6.0) n (%).

**Q.** And the “TEAE Abdominal Pain” value ([7]; Part B Subtotal (N = 170))?
**A.** Its value is 5 (2.9) n (%).

**Q.** And the “TEAE Diarrhea” value ([7]; Part B Subtotal (N = 170))?
**A.** Its value is 5 (2.9) n (%).

**Q.** What about the “TEAE Dyspepsia” value ([7]; Part B Subtotal (N = 170)) of the same molecule?
**A.** The value was 14 (8.2) n (%).

**Q.** And the “TEAE Nausea” value ([7]; Part B Subtotal (N = 170))?
**A.** Its value is 14 (8.2) n (%).

**Q.** What about the “TEAE SOC Gastrointestinal disorders” value ([7]; Part B Subtotal (N = 170)) of the same molecule?
**A.** The value was 40 (23.5) n (%).

**Q.** What about the “TEAE Vomiting” value ([7]; Part B Subtotal (N = 170)) of the same molecule?
**A.** Its value is 5 (2.9) n (%).

— patent US12622899B2 (PureTech LYT 100, Inc., priority 2018, dated 2026)
